{"source": "patent US20220304945A1", "about": "“METHODS OF TREATING METABOLIC SYNDROME RELATED CONDITIONS USING RETINOIC ACID RECEPTOR AGONISTS” (Cornell University, priority 2014, published 2022)", "key": {"α-SMA": {"test_system": "α-SMA", "experiment": "α-SMA immunofluorescence of kidney, HF-fed mice", "type": "in vivo, mouse", "settings": "HF diet mice 4 months", "from_the_text": "(§1) Mice, diet, and drug treatment. WT male C57/BL6 male mice were maintained on either a standard laboratory chow-fed diet (CFD) with 13% kcal fat, (diet #5053, Lab Diet, Inc, St. Louis, Mo.) or a high fat, western style diet (HFD) with 60% kcals from fat, (diet #58126, Lab Diet, Inc., St. Louis, Mo.) for 4 months. One month after the start of the high fat diet treatment, the high fat diet group was further split into 2 groups for 3 months: i) high fat diet and the drinking water containing 1% DMSO; ii) high fat diet and the drinking water containing 1.5 mg/100 ml AC261066, a specific RARβ agonist. Then mice were sacrificed by cervical dislocation. Blood and various tissue samples were harvested.\nCombined oil red O and Immunofluorescence staining. Fresh mouse kidney samples were embedded in optimal cutting temperature (OCT) medium and immediately frozen to −70 centigrade. Cryosections were then fixed in 4% formaldehyde for 1 hr at room temp. Slides were then rinsed three times in deionized water (dH2O) for 30 s, followed by treatment with 0.5% Triton X-100 in PBS for 5 min. Sections were then washed three times with PBS for 5 min. Samples were with incubated 2% bovine serum albumin (BSA) for 30 min at room temperature to block for unspecific antibody binding. […]"}, "RARβ2": {"target": "T1, RARβ2 (Homo sapiens, UniProt P10826)", "T1 sequence (P10826 1-448 isoform P10826-2)": "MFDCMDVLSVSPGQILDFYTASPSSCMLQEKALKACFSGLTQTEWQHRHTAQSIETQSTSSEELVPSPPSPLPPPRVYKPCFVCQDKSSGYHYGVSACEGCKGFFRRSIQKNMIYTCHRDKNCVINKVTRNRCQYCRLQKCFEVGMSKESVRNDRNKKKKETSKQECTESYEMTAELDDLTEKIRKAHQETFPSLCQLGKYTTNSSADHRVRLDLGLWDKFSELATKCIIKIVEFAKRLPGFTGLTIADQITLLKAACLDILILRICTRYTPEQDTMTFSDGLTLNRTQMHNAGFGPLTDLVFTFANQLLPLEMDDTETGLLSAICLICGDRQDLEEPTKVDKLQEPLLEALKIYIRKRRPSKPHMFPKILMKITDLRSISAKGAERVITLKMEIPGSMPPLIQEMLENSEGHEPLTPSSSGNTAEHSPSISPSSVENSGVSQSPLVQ", "settings": "as described in Lund et al. 2005; cited from earlier work"}, "RARβ2 mRNA": {"test_system": "RARβ2 mRNA", "experiment": "Semi-quantitative PCR of pancreas, LRAT −/− vitamin A deficient mice", "type": "in vivo, mouse", "settings": "treated 8 weeks", "protocol": "FIG. 10. Gene expression of RARβ2 in pancreatic tissue from LRAT −/− vitamin A sufficient mice (VAS, normal control diet), LRAT −/− vitamin A deficient (VAD) mice, and LRAT −/− vitamin A deficient (VAD) mice treated with AC261066 for 8 weeks.\nSemi-Quantitate PCR. Total RNA was extracted from mouse tissues using TRIzol reagent (Life technologies) and (1 μg) was used to synthesize cDNA. cDNA synthesis was performed at 42° C. for 1 h in a final volume of 20 μl using qScript (Quanta, MD). Semi-quantitative PCR were performed Taq DNA polymerase (Invitrogen, CA). Three step PCR was run as follows: 94° C. for 30 s, 58-64° C. for 45 s for primer annealing and 72° C. for 1 min for primer extension. The number of cycles for each primer pair for amplification in the linear range was determined experimentally. PCR products were resolved on 2% agarose gels and visualized by staining with ehtidium bromide. Primers for gene expression used were as follows: […]"}, "[1]": {"experiment": "Serum triglyceride level measurement (bichromatic assay), Example 8", "type": "in vivo, mouse", "settings": "HF diet mice (Example 8); vs control diet", "from_the_text": "as §1\nSerum triglyceride level measurement. The analysis of serum triglyceride levels was carried out using a bichromatic assay at the Laboratory of Comparative Pathology of the Memorial Sloan-Kettering Cancer Center. Chow-fed diet (CFD) n=2; high fat diet (HFD) n=3; high fat diet+AC261066 (HFDAC) n=5."}, "[2]": {"test_system": "SREBP1, FASN, PPAR-α, CPT1-α, MCP-1, TNF-α, α-SMA mRNA", "experiment": "PCR of kidney genes of lipid metabolism, inflammation and fibrosis in HFD, Ob/Ob and Db/Db mice (Example 23)", "type": "in vivo, mouse", "protocol": "Quantitative RT-PCR (Q-PCR)-Q-PCR was performed using SYBR Green PCR master mix on a Bio-Rad MyiQ2 Real Time PCR iCycler (Bio-Rad, Inc. Hercules, Calif.). Gene specific primers (Table 5) were used to amplify mRNA target genes, which were normalized to Hprt internal control genes. cDNA from 3-5 mice per experimental group was analyzed for relative mRNA fold changes, calculated using the Pfaffl method (Pfaffl M W, A new mathematical model for relative quantification in real-time RT-PCR, Nucleic Acids Res. 2001 May 1; 29(9):e45). Relative gene expression values are reported as mean±standard error of the mean (S.E.M) and P-values calculated using one-way analysis of variance followed by Bonferroni multiple comparison test post-hoc analysis.\nDiabetic kidney disease (aka diabetic nephropathy (DN)) frequently occurs in individuals with type 2 diabetes. The causes of DN are unclear but insulin resistance, hyperlipidemia and obesity are implicated because these states can impair renal lipid metabolism leading to the accumulation of free fatty acids (FFA), which can promote renal inflammation, fibrosis and impaired kidney function. There is evidence that transcriptions factors involved in de novo lipid synthesis such as srebpl contribute to the pathogenesis of DN. […] HF-fed mice treated with AC261066 had no increase in mRNA transcripts of SREBP1 and FASN (FIG. 33A).\nWe also measured kidney mRNA levels of pro-inflammatory and fibrogenic mediators MCP-1 (aka CCL2), TNF-α, and α-SMA in HFD-fed mice and two genetic mouse models of obesity and diabetes, Ob/Ob and Db/Db mice. MCP-1, TNF-α, and α-SMA are implicated in inflammation and fibrosis in DN and expression of these genes are frequently elevated in models of DN. […] Kidney mRNA transcripts of α-SMA, which contributes to DN fibrosis, was increased 5-6 fold in HFD Ob/Ob and Db/Db mice compared to wt con (FIG. 33D). HFD Ob/Ob and Db/Db mice treated AC261066 had 40-50% reductions in a-SMA transcripts compared to their respective HFD and genetic controls (FIG. 33D)."}, "[3]": {"settings": "HFD, Ob/Ob and Db/Db mice vs respective untreated"}}, "note": "Entries after “also recorded” stand apart in the source; their conditions may differ."}
{"smiles": "CCCCOCCOc1nc(-c2ccc(C(=O)O)c(F)c2)sc1C", "note": "[AC261066]", "values": [{"measurement": "α-SMA positive areas in kidney", "setting": "α-SMA", "value": "diminished; also recorded: not observed"}, {"measurement": "isoform selectivity for the human RARβ2 receptors", "setting": "RARβ2", "value": "highly isoform-selective agonists"}, {"measurement": "pancreatic RARβ2 mRNA level", "setting": "RARβ2 mRNA", "value": "increased"}, {"measurement": "serum triglyceride levels", "setting": "[1]", "value": "does not increase; also recorded: does not affect"}, {"measurement": "kidney mRNA transcripts of PPAR-α and CPT1-α, increase vs HFD-fed mice", "setting": "[2]; HF-fed mice", "value": "approximately 2 fold"}, {"measurement": "kidney mRNA transcripts of SREBP1 and FASN", "setting": "[2]; HF-fed mice", "value": "no increase"}, {"measurement": "reduction in kidney α-SMA transcripts", "setting": "[2]; HFD, Ob/Ob and Db/Db mice vs respective controls", "value": "40-50%"}, {"measurement": "reduction in kidney mRNA transcripts of MCP-1", "setting": "[2]; [3]", "value": "40-50%"}, {"measurement": "reduction in kidney mRNA transcripts of TNF-α", "setting": "[2]; [3]", "value": "40-50%"}]}
